Results: patent US20160137639A1, “TRIAZOLE-ISOXAZOLE COMPOUND AND MEDICAL USE THEREOF” (JAPAN TOBACCO INC., priority 2012, published 2016)

The molecules below were run against T1, human RORγ (Homo sapiens, UniProt P51449) (assay: Luciferase reporter gene assay of inhibitory effect against RORγ transcriptional activity (GAL4-hRORγ plasmid in CHO cells)). Conditions: read-out: LUC EC50 (μM) hRORg.
T1 construct: human, NM_005060.3 and from Ser253 to Lys518; expressed in transfected cells; host or cells: CHO cells (transient co-transfection with pG5-Luc reporter)
T1 sequence (P51449 253-518): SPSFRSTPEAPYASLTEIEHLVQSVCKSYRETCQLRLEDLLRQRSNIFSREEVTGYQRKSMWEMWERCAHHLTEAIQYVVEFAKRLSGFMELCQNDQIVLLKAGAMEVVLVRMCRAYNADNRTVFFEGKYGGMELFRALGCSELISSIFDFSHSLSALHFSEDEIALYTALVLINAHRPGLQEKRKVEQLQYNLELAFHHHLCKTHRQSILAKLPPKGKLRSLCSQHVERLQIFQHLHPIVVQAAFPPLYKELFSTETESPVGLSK
Assay type: cell-based
Description: (§1) In vitro assay of inhibitory effect against RORγ transcriptional activity
(§2) Inhibitory effect of test article on transcriptional activity of RORγ was measured by means of the following luciferase reporter gene assay.
(§3) A cDNA encoding human and mouse RORγ ligand binding domain (LBD) were obtained based on the reported sequences (Genebank accession number and sequence: human, NM_005060.3 and from Ser253 to Lys518; mouse, NM_011281.2 and from Ile251 to Lys516).
(§4) The cDNA of human RORγ or mouse RORγ was inserted into pFA-CMV vector (Strategene), which expresses GAL4-DNA binding domain fusion protein.
(§5) The resulting plasmids are hereinafter referred to as GAL4-hRORγ plasmid and GAL4-mRORγ plasmid, respectively.
(§6) Human or mouse GAL4-RORγ plasmid was transiently co-transfected into Chinese hamster ovary cells (CHO cells) with […] plasmid, a reporter plasmid expressing firefly luciferase depending on GAL4.
(§7) TransIT CHO transfection reagent (Mirus) was used to co-transfect human or mouse GAL4-RORγ plasmid into CHO cells with pG5-Luc plasmid.
(§8) One day before the assay, CHO cells were suspended in HAM F-12 Nutrient medium containing 10 v/v % fetal bovine serum and seeded at 6×10^6 cells per 175 cm^2 cell culture flask.
(§9) Fifty four micro litters of Transit-CHO reagent was added into a 15 ml tube containing 1.16 ml of HAM F-12 Nutrient medium without fetal bovine serum and incubated at room temperature for 10 min.
A total 36 uL plasmid solution containing the GAL4-hRORγ plasmid (400 ng), pG5-Luc plasmid (9000 ng) and pcDNA3 plasmid (8600 ng) were added into the tube and mixed gently.
(§10) The mixture was incubated at room temperature for 10 min.
(§11) Nine micro litters of CHO Mojo Reagent was then added into each tube and mixed gently. The mixture was incubated at room temperature for 10 min.
(§12) The resultant transfection reagent was applied to the cell culture.
(§13) After incubation at 37° C., 5% CO2 for 4 hr, the transfected CHO cells were harvested by a trypsin treatment.
(§14) The collected cells were resuspended in HAM F-12 Nutrient medium supplemented with 10 v/v % fetal bovine serum and plated into a 384-well-white plate at 8,000 cells/50 uL/well.
(§15) The plate was incubated at room temperature for 1 hour and then further incubated at 37° C., 5% CO2 for 3 hours.
(§16) The test articles were dissolved in dimethylsulfoxide (DMSO) to obtain a concentration of 10 mmol/L. The resulting solution was diluted with the medium just before use and added to the cells in the plate to prepare 8 different concentrations of the test article.
(§17) The final concentration of DMSO was 0.1 v/v % After the addition of the test articles, the cells were incubated at 37° C., 5% CO2 for 2 days.
(§18) RORγ transcriptional activity was detected as the intracellular luciferase activity using SteadyLite HTS Reporter Gene Assay System (Perkin Elmer).
(§19) StedyLite Reagent was diluted five-fold into a solution containing 10 mM Tricine, 0.2% w/v BSA, 0.02% v/v Tween-20 to obtain the luciferase substrate solution.
(§20) After the measurement of the cell viability using Resazurin, the culture media in the 384 well-plate were removed. Then the Luc substrate solution was added into each well.
(§21) After the incubation at room temperature for 10 minutes, luminescence of each well was measured by a microplate reader.
(§22) The luciferase activity derived from the luminescence count in the vehicle-control well treated with 0.1% DMSO alone was defined as 100%, and the luciferase activity in the test article was calculated as a percentage (%-of-control) based on the value of the vehicle-control.
(§23) EC50 value of test article was calculated by curve fitting with GraphPad Prism.
(§24) The luminescence counts at the concentration of the test article where the cytotoxicity was observed were excluded from the data analysis.
With Cc1ccc(NC(=O)[C@H]2CCN(C)C[C@@H]2c2nnc(CCCC(C)(C)C)n2C2CC2)c(C)c1 (racemic) [Example F-395] the EC50 was < 3 µM. Cc1ccc(NC(=O)CCc2nnc(CCC(C)C)n2C2CC2)cc1C [Example F-74] was tested, and the EC50 was > 3 µM. Cc1cc(Cl)c(NC(=O)C[C@H](CCC(=O)O)c2noc(-c3cc(CCC(C)(C)C)on3)c2C2CC2)cc1F [Example E-45] was tested, and the EC50 was < 3 µM. With CCn1c(CCC(=O)NC2CCCCC2)nnc1C1Cc2ccccc2C1 [Example F-21] the EC50 was > 3 µM. Cc1c(Cl)cccc1NC(=O)CCc1nnc(C2CN(C(=O)OC(C)(C)C)C2)n1C1CC1 [Example F-234] was tested, and the EC50 was > 3 µM. In the case of Cc1ccc(NC(=O)CCc2nnc([C@H]3C[C@@H](CCC(C)C)C3)n2C2CC2)c(C)c1 [Example F-444], the EC50 is reported as < 3 µM.

Same assay, conditions: read-out: LUC EC50 hRORg
With Cc1ccc(NC(=O)C[C@H](CCC(=O)O)c2nnn(-c3ccc(CCC4CCCC4)cc3)c2C2CC2)c(Cl)c1 [Example F-701] the EC50 was < 3 µM. For Cc1ccc(NC(=O)[C@@H](CCC(=O)O)Cc2noc([C@H]3C[C@@H](CC(C)(C)C)C3)c2C2CC2)c(C)c1 [Example F-685], the EC50 was < 3 µM. In the case of Cc1cc(Cl)ccc1NC(=O)C[C@H](CC(C)C)c1nnc(-c2cc(CC(C)C)on2)n1C1CC1 [Example F-606], the EC50 is reported as < 3 µM. For Cc1ccc(NC(=O)C[C@H](CCC(=O)O)c2noc3c2C(C)CCC3CCC(C)C)c(Cl)c1 (single isomer, unassigned) [Example F-694], the EC50 was < 3 µM. In the case of Cc1ccc(NC(=O)CC(CC(=O)N(C)C)c2nnc([C@H]3C[C@@H](CC(C)C)C3)n2C2CC2)c(C)c1 (mixture of isomers) [Example F-500], the EC50 is reported as < 3 µM. With Cc1ccc(NC(=O)C[C@H](CCC(=O)O)c2noc([C@H]3C[C@@H](CC(C)(C)C(=O)O)C3)c2C2CC2)c(Cl)c1 [Example F-727] the EC50 was > 3 µM. With Cc1ccc(NC(=O)CCc2noc([C@H]3C[C@@H](CC(C)(C)C)C3)c2C2CC2)c(Cl)c1 [Example F-719] the EC50 was < 3 µM. For COC1C[C@@H](C(=O)Nc2ccc(C)cc2C)[C@H](c2nnc([C@H]3C[C@@H](CC(C)C)C3)n2C2CC2)C1 (single isomer, unassigned) [Example F-557], the EC50 was > 3 µM. In the case of Cc1cc(C)c(NC(=O)C[C@H](CCC(=O)O)c2noc([C@H]3C[C@@H](CC(C)(C)C)C3)c2C2CC2)cn1 [Example F-675], the EC50 is reported as < 3 µM. In the case of Cc1ccc(NC(=O)[C@H]2CN(CC(C)C)C[C@@H]2c2nnc([C@H]3C[C@@H](CC(C)C)C3)n2C2CC2)c(C)c1 [Example F-596], the EC50 is reported as < 3 µM. With CC(=O)c1ccc(NC(=O)C[C@H](CCC(=O)O)c2noc([C@H]3C[C@@H](CC(C)(C)CO)C3)c2C2CC2)c(Cl)c1 [Example F-731] the EC50 was > 3 µM. With Cc1ccc(NC(=O)C[C@H](OCc2ccccc2)c2nnc([C@H]3C[C@@H](CC(C)C)C3)n2C2CC2)c(C)c1 [Example F-581] the EC50 was < 3 µM. Cc1ccc(NC(=O)[C@H]2CN(C(=O)C(C)C)C[C@@H]2c2nnc([C@H]3C[C@@H](CC(C)(C)C)C3)n2C2CC2)c(C)c1 [Example F-553] was tested, and the EC50 was < 3 µM.

Each molecule was assayed against T2, mouse RORγ (Mus musculus, UniProt P51450) (assay: Luciferase reporter gene assay of inhibitory effect against RORγ transcriptional activity (GAL4-mRORγ plasmid in CHO cells)). Conditions: read-out: LUC EC50 (μM) mRORg.
T2 construct: mouse, NM_011281.2 and from Ile251 to Lys516; expressed in transfected cells; host or cells: CHO cells (transient co-transfection with pG5-Luc reporter)
T2 sequence (P51450 251-516): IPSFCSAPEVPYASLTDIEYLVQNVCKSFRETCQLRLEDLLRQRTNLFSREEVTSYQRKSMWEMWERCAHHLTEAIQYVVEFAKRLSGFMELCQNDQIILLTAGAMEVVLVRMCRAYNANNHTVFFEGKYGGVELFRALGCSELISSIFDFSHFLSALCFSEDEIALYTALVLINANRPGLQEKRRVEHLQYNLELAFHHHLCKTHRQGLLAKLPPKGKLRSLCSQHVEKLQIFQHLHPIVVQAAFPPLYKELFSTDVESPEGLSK
Assay type: cell-based
Description: as §1, §2, §3, §4, §5, §6, §7, §8, §9, §10, §11, §12, §13, §14, §15, §16, §17, §18, §19, §20, §21, §22, §23, §24
Cc1ccc(NC(=O)[C@H]2CCN(C)C[C@@H]2c2nnc(CCCC(C)(C)C)n2C2CC2)c(C)c1 (racemic) [Example F-395] was tested, and the EC50 was < 3 µM. With Cc1ccc(NC(=O)CCc2nnc(CCC(C)C)n2C2CC2)cc1C [Example F-74] the EC50 was > 3 µM. Cc1cc(Cl)c(NC(=O)C[C@H](CCC(=O)O)c2noc(-c3cc(CCC(C)(C)C)on3)c2C2CC2)cc1F [Example E-45] was tested, and the EC50 was < 3 µM. CCn1c(CCC(=O)NC2CCCCC2)nnc1C1Cc2ccccc2C1 [Example F-21] was tested, and the EC50 was > 3 µM. With Cc1c(Cl)cccc1NC(=O)CCc1nnc(C2CN(C(=O)OC(C)(C)C)C2)n1C1CC1 [Example F-234] the EC50 was < 3 µM. For Cc1ccc(NC(=O)CCc2nnc([C@H]3C[C@@H](CCC(C)C)C3)n2C2CC2)c(C)c1 [Example F-444], the EC50 was < 3 µM.

Same assay, conditions: read-out: LUC EC50 mRORg
With Cc1ccc(NC(=O)C[C@H](CCC(=O)O)c2nnn(-c3ccc(CCC4CCCC4)cc3)c2C2CC2)c(Cl)c1 [Example F-701] the EC50 was < 3 µM. For Cc1ccc(NC(=O)[C@@H](CCC(=O)O)Cc2noc([C@H]3C[C@@H](CC(C)(C)C)C3)c2C2CC2)c(C)c1 [Example F-685], the EC50 was < 3 µM. In the case of Cc1cc(Cl)ccc1NC(=O)C[C@H](CC(C)C)c1nnc(-c2cc(CC(C)C)on2)n1C1CC1 [Example F-606], the EC50 is reported as < 3 µM. With Cc1ccc(NC(=O)C[C@H](CCC(=O)O)c2noc3c2C(C)CCC3CCC(C)C)c(Cl)c1 (single isomer, unassigned) [Example F-694] the EC50 was < 3 µM. Cc1ccc(NC(=O)CC(CC(=O)N(C)C)c2nnc([C@H]3C[C@@H](CC(C)C)C3)n2C2CC2)c(C)c1 (mixture of isomers) [Example F-500] was tested, and the EC50 was < 3 µM. For Cc1ccc(NC(=O)C[C@H](CCC(=O)O)c2noc([C@H]3C[C@@H](CC(C)(C)C(=O)O)C3)c2C2CC2)c(Cl)c1 [Example F-727], the EC50 was > 3 µM. Cc1ccc(NC(=O)CCc2noc([C@H]3C[C@@H](CC(C)(C)C)C3)c2C2CC2)c(Cl)c1 [Example F-719] was tested, and the EC50 was < 3 µM. With COC1C[C@@H](C(=O)Nc2ccc(C)cc2C)[C@H](c2nnc([C@H]3C[C@@H](CC(C)C)C3)n2C2CC2)C1 (single isomer, unassigned) [Example F-557] the EC50 was > 3 µM. For Cc1cc(C)c(NC(=O)C[C@H](CCC(=O)O)c2noc([C@H]3C[C@@H](CC(C)(C)C)C3)c2C2CC2)cn1 [Example F-675], the EC50 was < 3 µM. For Cc1ccc(NC(=O)[C@H]2CN(CC(C)C)C[C@@H]2c2nnc([C@H]3C[C@@H](CC(C)C)C3)n2C2CC2)c(C)c1 [Example F-596], the EC50 was < 3 µM. With CC(=O)c1ccc(NC(=O)C[C@H](CCC(=O)O)c2noc([C@H]3C[C@@H](CC(C)(C)CO)C3)c2C2CC2)c(Cl)c1 [Example F-731] the EC50 was > 3 µM. In the case of Cc1ccc(NC(=O)C[C@H](OCc2ccccc2)c2nnc([C@H]3C[C@@H](CC(C)C)C3)n2C2CC2)c(C)c1 [Example F-581], the EC50 is reported as < 3 µM. For Cc1ccc(NC(=O)[C@H]2CN(C(=O)C(C)C)C[C@@H]2c2nnc([C@H]3C[C@@H](CC(C)(C)C)C3)n2C2CC2)c(C)c1 [Example F-553], the EC50 was < 3 µM.
